What was measured:
KG1a [1] = assay: Lymphocyte adherence assay on KG1a cytocentrifuge preparations (Examples 2-6); format: cell-based, human
KG1a cells = assay: Stamper-Woodruff lymphocyte adherence assay on KG1a cytospins (Example 9); format: cell-based, human; settings: Stamper-Woodruff assay
PSGL-1 on KG1a cells = assay: P-selectin-Ig binding to PSGL-1 on KG1a cells (flow cytometry); format: cell-based, human; settings: after treatment of KG1a
protein synthesis = assay: 35S-methionine/cysteine incorporation into TCA-precipitable protein of KG1a; format: cell-based, human
Description: In each case, cells were cultured for 20 hours and the expression of L-selectin ligand activity was measured by adherence assay at the end of the culture period. For all studies utilizing metabolic inhibitors, parallel cultures were established in the presence of ^35S-methionine/cysteine and protein synthesis was measured by scintillation counting of trichloroacetic acid (TCA)-precipitable protein as previously described (27).

sulfation = assay: 35S-SO4 pulse radiolabelling of KG1a, TCA-precipitable counts; settings: 10 mM chlorate, eight hour pulses within 24 hours
KG1a [2] = assay: KG1a cell viability by trypan blue exclusion; format: cell-based, human; settings: KG1a after the treatment
CD43 = assay: Flow cytometry of sialic acid-dependent L60 epitope of CD43 on KG1a after neuraminidase; format: cell-based, human; settings: KG1a cultured with the agent
LN HEV = assay: Lymphocyte adherence to frozen rat lymph node sections (LN HEV, positive control); format: cell-based
Description: Lymphocyte Adherence Assay. […] Cytocentrifuge preparations of KG1a or other cell lines were made on a Cytospin 3 Cytocentrifuge (Shandon Lipshaw, Pittsburgh, Pa.). Frozen rat LN sections […] thick were mounted on slides, and lymphocyte binding to LN HEV served as a positive control in all experiments.
Lymphocyte suspensions ([…]) were overlaid onto cytocentrifuge or LN sections in duplicate and placed on a rotating platform (80 rpm) at 4° C. for 30 minutes. Slides were then rinsed in cold PBS to remove non-adherent lymphocytes, fixed in 3% glutaraldehyde, and stained with methyl green-thionin. Slides were examined under the light microscope for adherence of lymphocytes to KG1a or LN HEV.

L-selectin = assay: Flow cytometry of surface L-selectin (TQ1) on PMA-treated PBL; format: cell-based, human; settings: 10 ng/ml PMA, 1 hour 37° C.
Description: (§1) PMA Treatment of Lymphocytes. Lymphocytes were suspended at 1′ 10^7 cells/ml in cell culture medium and incubated 1 hour at 37° C. with or without 10 ng/ml PMA (Gibco-BRL). Cells were then washed twice in PBS and used in either the lymphocyte binding assay or analyzed for surface antigens by flow cytometry (see below).
(§2) Antigen Expression by Flow Cytometry. Flow cytometric analysis was performed using the following commercially-available mAbs together with isotype-matched controls: TQ1 (anti-L-selectin), LAM1-3 (Anti-L-selectin), 4B4 (anti-VLA-4) (all from Coulter Corp.); QBEND10 (anti-CD34) (AMAC, Westbrook, Me.); anti-CD44, LFA-1-b (anti-CD18), LFA-1-a (anti-CD11a), HPCAS-2 (anti-CD34), anti-CD45, Leukosialin (anti-CD43), anti-Sialyl-Le^x (all from Becton Dickinson). Cells (1′ 10^6) in […] of PBS with 2% FBS were incubated on ice for 25 minutes with antibody as per manufacturer's recommendations, washed ′3 and analyzed on a FACStar^PLUS (Becton Dickinson).

[3] = tested on: CD44, LFA-1 (both a and b chains), and VLA-4; assay: Flow cytometry of CD44, LFA-1 and VLA-4 on PMA-treated PBL; format: cell-based, human; settings: vs control PBL
Description: as §1, §2

SMILES	lymphocyte adherence to chlorate-incubated KG1a cells, that of neuraminidase-treated KG1a cells not incubated in chlorate (KG1a [1]; 24 hours after neuraminidase, 10 mM sodium chlorate, mean±SEM) [%]	Lymphocyte Adherence to KG1a, Mean of Binding (% of untreated control) (KG1a [1]; after neuraminidase, 24 hr culture with chlorate 10 mM, 20 hr culture with tunicamycin 15 ug/ml or cycloheximide 1.25 ug/ml)	L-selectin ligand (HCELL) activity of KG1a / lymphocyte adherence (result in words) (KG1a cells)	P-selectin(-Ig) binding to PSGL-1 on KG1a cells (PSGL-1 on KG1a cells)	protein synthesis (35S-methionine/cysteine TCA-precipitable counts) (protein synthesis)	TCA-precipitable 35S-SO4 radiolabeled protein counts, that of non-chlorate treated controls (sulfation) [%]	Cell viability (trypan blue exclusion) (KG1a [2]) [%]	return of the L60 epitope of CD43 after neuraminidase (CD43)	lymphocyte binding to LN control sections / LN HEV (result in words) (LN HEV)	TQ1 mean channel fluorescence, of that of untreated cells (L-selectin)	lymphocyte binding to KG1a (result in words) (KG1a [1])	Lymphocyte Adherence to KG1a, Mean of Binding (% of untreated control) (KG1a [1]; […], 1 mM EDTA, 10 mM mannose-6-P, 10 mg/ml PPME, 5 mg/ml fucoidin, 10 ng/ml PMA)	expression of CD44, LFA-1 and VLA-4 following PMA exposure [3]
[O-][Cl+2]([O-])O [Chlorate, sodium chlorate]	107	107.1 % of untreated control	did not alter	eliminated	did not inhibit	< 10	> 95	did not block re-expression					
CCCCCCCCCCCCCC(=O)O[C@@H]1[C@@H](C)[C@@]2(O)[C@@H](C=C(CO)C[C@]3(O)C(=O)C(C)=C[C@@H]23)[C@@H]2C(C)(C)[C@]12OC(C)=O [PMA, phorbol myristate acetate]			complete elimination						unable to bind	less than 10%	unable to bind	1.1 % of Untreated Control	identical

Source: patent publication US20060003924A1, “Sulfation-independent L-selectin or E-selectin ligand (HCELL) and therapeutics thereof” (priority 1994, published 2006)
